Our source for the IC50, ED50 and LD50 values is US4489003A, “Imidazobenzodiazepines” (Hoffmann-La Roche Inc., priority 1982, dated 1984).

SMILES strings stand for the structures.

The target of data set [1] is central benzodiazepine receptors. Put plainly: inhibition of the binding of tritiated diazepam at the specific benzodiazepine receptors in the cerebral cortex. The following applies: [3H]diazepam. How it is done:
The affinity of compounds of general formula I to the central benzodiazepine receptors was determined according to the method described in Life Science 20, 2101-2110 (1977) and Science 198, 849-851 (1977). According to this method, the inhibition of the binding of tritiated diazepam at the specific benzodiazepine receptors in the cerebral cortex by the respective test substances is ascertained. The IC50 ("50% inhibiting concentration") is that concentration of the respective test substance which brings about a 50 percent inhibition of the specific binding of the tritiated diazepam at the specific benzodiazepine receptors in the cerebral cortex.

Data set [2] deals with spasmodic seizures caused by pentetrazole. Put plainly: antipentetrazole test. The format is in vivo. The following applies: Rattus norvegicus, po, 0.5 h; female rats 60-80 g, p.o. 30 minutes before 120 mg/kg pentetrazole i.p. How it is done: The central properties of the compounds of formula I provided by the present invention can be determinded, for example, in the antipentetrazole test which is described hereinafter and which is generally recognized for recording anticonvulsant properties.
In this animal experiment the compound under investigation is administered orally to female rats weighing 60-80 g and 30 minutes later there are administered intraperitoneally 120 mg/kg of pentetrazole which causes emprosthotonus and tonic stretchings of the fore and/or hind limbs in unprotected experimental animals 1 to 4 minutes after the injection. Ten experimental animals are used per dosage of test substance. After counting the protected experimental animals, the ED50 is determined according to the Probit method. The ED50 is that dosage which protects 50% of the experimental animals from the spasmodic seizures caused by pentetrazole.

Data set [3] deals with sedative, muscle relaxant and motor coordination-disturbing activity caused by high dosages of diazepam. Description: traction test (antagonism of diazepam). The format is in vivo. Particulars: Mus musculus, po, 0.25 h; mice, p.o. 15 minutes after 3 mg/kg diazepam i.p. The procedure:
In this animal experiment the ability of the test substances to antagonise the sedative, muscle relaxant and motor coordination-disturbing activity caused by high dosages of diazepam is determined.
Mice weighing 17-29 g are lifted by the tail and are allowed to grip a taut horizontal wire (length 15 cm, height 20 cm, diameter 1 mm) with the front paws, whereupon the experimental animals are released. Untreated control animals are capable of gripping the wire with both front paws and at least one hind paw within 3 seconds. If 3 mg/kg of diazepam are administered intraperitoneally to the experimental animals, then their aforementioned capabilities disappear, i.e. they are no longer capable of gripping the taut horizontal wire within 3 seconds with both front paws and at least one hind paw. 15 minutes after the administration of diazepam the compound under investigation is administered orally to the experimental animals, whereupon there are counted those animals which have regained the aforementioned capabilities. The ED50 is that dosage which in 50% of the experimental animals antagonizes the action of diazepam, i.e. counteracts this.

A short description of data set [4]: acute toxicity, single oral administration. The following applies: rat, in vivo; single oral administration to rats. From the text: The results obtained with representative compounds of formula I in the experiments described earlier are compiled in the following Table. The Table also contains data concerning the acute toxcity of some of these compounds (LD50 in mg/kg following single oral administration to rats).

A word on the IC50: it is the concentration that inhibits the measured activity by half. A high value points to lower potency. In general, ED50 refers to the midpoint of the dose-response relation. Higher therefore signals a need for a large dose. In general, LD50 refers to the dose expected to kill half of the subjects tested. Take `O=C(OCC1CC1)c1ncn2c1[C@@H]1CCCN1C(=O)c1c(Cl)cccc1-2`: in data set [1], the IC50 stood at 2300 nM. Moreover, the ED50 in data set [2] worked out at 0.66 mg/kg; in data set [3], 0.8 mg/kg. In data set [4], this compound showed an LD50 of 1000 to 2000 mg/kg.

For the compound `O=C(OCC1CC1)c1ncn2c1[C@@H]1CCN1C(=O)c1c(Cl)cccc1-2`, the IC50 in data set [1] is 1100 nM. Also, the ED50 in data set [2] is 0.27 mg/kg; in data set [3], below 30 mg/kg.

As to `O=C(OCc1ccccc1)c1ncn2c1[C@@H]1CCCN1C(=O)c1c(Cl)cccc1-2`, the IC50 in data set [1] was found to be 1500 nM. The ED50 was above 100 mg/kg in data set [2] and 0.09 mg/kg in data set [3].

`O=C(OC1CCCCC1)c1ncn2c1[C@@H]1CCCN1C(=O)c1c(Br)cccc1-2`: the IC50 in data set [1] was determined as 2700 nM. In addition, the ED50 in data set [2] was 7 mg/kg; in data set [3], below 30 mg/kg. The compound also had an LD50 in data set [4] above 5000 mg/kg.

The compound `O=C(OCC1CC1)c1ncn2c1[C@@H]1CCCN1C(=O)c1c(Br)cccc1-2` yielded an IC50 in data set [1] of 2600 nM. The ED50 in data set [2] is 0.63 mg/kg; in data set [3], below 30 mg/kg. Besides, the LD50 in data set [4] was 625 to 1250 mg/kg.

In data set [1], `O=C(OC1CCCCC1)c1ncn2c1[C@@H]1CCCN1C(=O)c1c(I)cccc1-2` yielded an IC50 of 2100 nM. For the same compound, the ED50 in data set [2] was 2.2 mg/kg; in data set [3], above 30 mg/kg. In data set [4], this compound gave an LD50 above 5000 mg/kg.

With `C#CCOC(=O)c1ncn2c1[C@@H]1CCCN1C(=O)c1c(Cl)cccc1-2` [Example 27, 2-propynyl (S)-8-chloro-11,12,13,13a-tetrahydro-9-oxo-9H-imidazo[1,5-a]pyrrolo[2,1-c][1,4]benzodiazepine-1-carboxylate], in data set [1], the IC50 amounted to 2100 nM. Besides, the values for the ED50 in data set [2] and in data set [3] were above 100 mg/kg and 0.005 mg/kg, respectively.
